Test results taken from US10828315B2 (Madrigal Pharmaceuticals, Inc., priority 2013, dated 2020).
Values joined by “and” are separate entries in the source; they are usually repeats but may differ in a detail not shown here. Identical values can stand only once. Like-named read-outs stand apart in the source and are kept apart here.

Key:
[1] = test system: human breast cancer cell line BT-474; experiment: Cytotoxicity assay (CellTiter-Glo, 72 h), BT-474; type: cell-based; settings: BT-474, 72 h, read-out: Cytotoxicity (IC50, nM) BT-474
Experimental: (§2) Cytotoxicity of SDC-TRAP molecules was determined in three cancer cell lines. […] 80 μL of CellTiter-Glo was added to each well, followed by room temperature incubation in the dark for 15 minutes. Cell was determined by luminescence. IC50 was calculated using XLfit™ software.

in vivo = settings: female, SCID, mouse
Experimental: Using the 10 mM stock solutions of the SDC-TRAP molecule and its Hsp90i binding moiety and effector moiety in DMSO, spiking solutions were prepared at 0.025, 0.05, 0.1, 0.5, 1, 5, 10, 50, 100, 250, and 500 μM in DMSO. 5 μL of each spiking solution was added to a 96-deep well plate.
Quality control standards were prepared from 5 μL of 0.1, 1, and 10 μM calibration standard spiking solution added in triplicate into 96-deep well plate and adding 50 μL of matrix (plasma or homogenized tumor).
To prepare test samples, test plasma was diluted as needed using blank plasma.
Tumor samples were pulverized in liquid nitrogen, weighed, and homogenized in PBS at 5× volume to sample weight. 50 μL of unknown plasma or homogenized tumor sample was mixed with 5 μL of DMSO. The samples were extracted by precipitating calibration standards, QC standards, and unknown samples with 200 μL of internal standard solution. The samples were mixed by vortex at room temperature for approximately 1.5 minutes, then centrifuge at 2-8° C. 150 μL of supernatant was collected and 25 μL of water added. Samples were mixed and analyzed by LC-MS/MS.
Samples of plasma, heart and tumor were excised from a euthanized mouse, homogenized in PBS at 5 times tissue weight and diluted in 5 μL DMSO/50 μL sample. Prior to analysis, 55 μL samples and calibration standards were precipitated in 200 μL methanol in 96-well plates. Samples were mixed on a vortex mixer for 1.5 minutes at 1500 rpm at room temperature, then centrifuged at 4400 rpm for 10 minutes at 8° C. 150 μL of each supernatant was transferred to a well of a new 96-well plate, and 25 μL of water was added and mixed with the sample. […] For the analysis of samples from female SCID mice, a gradient of solvent A (water/0.1% formic acid) and B (acetonitrile/0.1% formic acid) was used as in Table 2 below.
Various SDC-TRAP molecules and appropriate controls were administered to mice and after various time points the plasma and tumor concentration of these molecules was determined.

[2] = Mouse plasma stability protocol, up to 1 h (Examples 16-18); settings: for % Remaining (1 h): % Remaining of parent after 1 h incubation in mouse plasma at 37° C. (10 μM)
[3] = test system: human urinary bladder cancer cell line SW780; experiment: Cytotoxicity assay (CellTiter-Glo, 72 h), SW780; type: cell-based; settings: SW780, 72 h, read-out: Cytotoxicity (IC50, nM) SW-780
Experimental: as §2

HER2 [4] = experiment: HER2 degradation assay with BT-474 cell line (Example 12, FACS); type: cell-based, human
[5] = test system: human urinary bladder cancer cell line RT-112; experiment: Cytotoxicity assay (CellTiter-Glo, 72 h), RT-112; type: cell-based; settings: RT-112, 72 h, read-out: Cytotoxicity (IC50, nM) RT-112
Experimental: as §2

[6] = test system: HCT-116 human colorectal xenografts; experiment: Mouse xenograft efficacy in HCT-116 colon cancer model; settings: IV, Q7D×3, then drug-free period; SDC-TRAP-0063 200 and 100 mg/kg, SDC-TRAP-0046 94 mg/kg, irinotecan 67 mg/kg, SYN-01 100 mg/kg
Experimental: The cells were maintained in vitro as a monolayer culture in McCoy's 5a Medium. Fetal bovine serum was then be added to the medium. The final concentration of fetal bovine serum was 10%. Cells were cultured at 37° C. and 5% CO2. The tumor cells were routinely sub-cultured twice weekly by trypsin-EDTA treatment. Cells in an exponential growth phase were harvested and counted for tumor inoculation.
100 18-22 g, 5-7 week old, female BALB/cA nude mice were inoculated with the HCT 116 cells (2.0×10^6, 1:1 with Matrigel) subcutaneously on the back of each animal (0.1 mL/mouse). When the average tumor volume reached about 150-250 mm^3, 60 of the inoculated mice was selected based on tumor growth and randomly grouped into 6 treatment groups (10 mice per group) according to the following table.
The administrations were made with 27-gauge IV needle.
During the treatment period, the implanted tumors were measured by caliper twice per week. The tumors were measured for the maximum width (X) and length (Y) and the tumor volumes (V) were calculated using the formula: V=(X^2Y)/2. The differences in the tumor volume between the control and treatment groups were analyzed for significance using the unpaired two-tailed Student's t-test. P<0.05 was considered to be statistically significant. The animal body weights were also weighed and recorded twice per week.

HER2 [7] = experiment: HER2 degradation in BT-474 cells (Example 3, Methods 1 and 2); type: cell-based, human
In short: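 BT-474 cells treated 24 h at 37 °C with 10-point 3-fold compound dilutions; HER2 read by in-cell immunofluorescence after paraformaldehyde fixation, signal normalized to DRAQ5 nuclear stain, EC50 from curve fit. Degradation also checked by western blot of cytosolic lysates against tubulin.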

[8] = Stability in cell culture media (Example 18)
Experimental: 98 μL of DMEM+10% FBS, +1% P/S, +1.5 g/L sodium bicarbonate cell culture media was mixed with 2 μL of DMSO and aliquotted into 96-well plates at 250 μL per 0, 1, 2, and 18 hour time point.
3×50 μL media samples in 96 were held in 96-well plates at −80° C. until the last time point was extracted. 200 μL of methanol containing IS was added and mixed by vortex at 1500 rpm for 1.5 minutes at room temperature. The samples were centrifuged at 4400 rpm for 10 minutes at 8° C.

[9] = Artificial membrane permeability assay (PAMPA); settings: same protocol, second table
Experimental: Pre-coated PAMPA plates were warmed to room temperature for at least 30 minutes prior to adding assay components.
Stock solutions were prepared with the SDC-TRAP molecules to be tested. In order to make a working solution, either 50 μL of 100 μM Stock in DMSO+950 μL of PBS or 50 μL of 200 μM stock was added to 96 deep well plate, resulting in a 5 μM final concentration or a 10 μM final concentration, respectively. 3000 μL of the working solution containing each compound to be tested was added to the appropriate well of a donor PAMPA plate. 200 μL of PBS was added into the corresponding wells of an acceptor PAMPA plates.
The acceptor plate was lowered onto the donor plate and allowed to incubate for five hours. After five hours, a 50 μL aliquot was removed from each well of each plate and added into a new 96 deep-well plate.
100 μL of methanol containing an internal standard was added to each aliquot and analyzed by LC/MS.
In order to calculate the permeability for each SDC-TRAP molecule and the control molecules, the following formula was used:

[10] = mouse, plasma, 1 h, 10 µM
[11] = Stability in human plasma, 2 h at 37° C. (Example 5); type: in vitro ADME
Experimental: (§1) SDC-TRAP-0022 and SDC-TRAP-0028 were incubated in human and mouse plasma for 2 h at 37° C. and assayed for integrity at 0.25, 0.5, 1 and 2 h. The values reported below are the remaining of the parent compound at the end of the 2 h incubation period.

[12] = Stability in mouse plasma, 2 h at 37° C. (Example 5); type: in vitro ADME
Experimental: as §1

Human H3122 NSCLC cells = experiment: Cell viability assay (CellTiter-Glo) in H3122 cells (Example 4); type: cell-based; settings: NCI-H3122
Experimental: Human H3122 NSCLC cells were obtained and grown in RPMI in the presence of fetal bovine serum (10%), 2 mM L-glutamine and antibiotics (100 IU/ml penicillin and 100 μg/ml streptomycin, Sigma Aldrich.) Cells were maintained at 37° C., 5% CO2 atmosphere.
Cell viability was measured using the CellTiter-Glo® assay (Promega). In brief, cells were plated in 96-well plates in triplicate at optimal seeding density (determined empirically) and incubated at 37° C., 5% CO2 atmosphere for 24 hr prior to the addition of drug or vehicle (0.3% DMSO) to the culture medium. At the end of the assay, CellTiter-Glo was added to the wells per manufacturer's recommendation, shaken for two minutes and incubated for 10 minutes at room temperature. Luminescence (0.1 sec) was measured with a Victor II microplate reader (Perkin Elmer) and the resulting data were used to calculate cell viability, normalized to vehicle control.
Cells as described above were treated with exemplary SDC-TRAPs and their viability determined as above as well. The following table illustrates the results.

H 3211 NSLC cells = experiment: IC50 of continuous and pulsed exposure (Examples 9 and 10); type: cell-based
[13] = Tissue Distribution Data for SDC-TRAP-0171, Time (h) 0.083
[14] = Tissue Distribution Data for SDC-TRAP-0171, Time (h) 1
[15] = Tissue Distribution Data for SDC-TRAP-0171, Time (h) 6
[16] = Tissue Distribution Data for SDC-TRAP-0171, Time (h) 24
[17] = Tissue Distribution Data for SDC-TRAP-0171, Time (h) 48
[18] = Tissue Distribution Data for SDC-TRAP-0046, Time (h) 0.083
[19] = Tissue Distribution Data for SDC-TRAP-0046, Time (h) 6
[20] = Tissue Distribution Data for SDC-TRAP-0046, Time (h) 12
[21] = Tissue Distribution Data for SDC-TRAP-0046, Time (h) 24
[22] = Tissue Distribution Data for SDC-TRAP-0046, Time (h) 48
[23] = after SDC-TRAP-0046 50 mg/110 mL/kg IV, DRD, 6 h
[24] = after SDC-TRAP-0046 50 mg/110 mL/kg IV, DRD, 12 h
[25] = after SDC-TRAP-0046 50 mg/110 mL/kg IV, DRD, 24 h
[26] = after SDC-TRAP-0046 50 mg/110 mL/kg IV, DRD, 48 h

CC(C)c1cc(-c2nnc(O)n2-c2ccc(CN3CCN(C(=O)Oc4ccc(COC(=O)Nc5cccc6c5CN(C5CCC(=O)NC5=O)C6=O)cc4)CC3)c(F)c2)c(O)cc1O (centres unmarked) [SDC-TRAP-0171, 4-((((2-(2,6-dioxopiperidin-3-yl)-1-oxoisoindolin-4-yl)carbamoyl)oxy)methyl)phenyl-4-(4-(3-(2,4-dihydroxy-5-isopropylphenyl)-5-hydroxy-4H-1,2,4-triazol-4-yl)-2-fluorobenzyl)piperazine-1-carboxylate]
IC50 [1]: 58 nM
Kp at 1 h (in vivo): 0.0589
Kp at 6 h (in vivo): 1.59
Kp at 24 h (in vivo): 100
Kp at […] (in vivo): 0.0179
concentration at 1 h (in vivo): 217 µM
concentration at 6 h (in vivo): 4.51 µM
concentration at 24 h (in vivo): 0.028 µM
concentration at 48 h (in vivo): 0.241 µM
concentration at […] (in vivo): 918 µM
% Remaining (1 h) [2]: 17.7%
IC50 [3]: 275 nM
IC50 (HER2 [4]): 199 nM
Plasma Conc. [13]: 618 µM
Tumor Conc. [13]: 0.083 nmol/g of tissue
Tumor/Plasma Ratio [13]: 0.0164
Plasma Conc. [14]: 32.2 µM
Tumor Conc. [14]: 1 nmol/g of tissue
Tumor/Plasma Ratio [14]: 0.249
Plasma Conc. [15]: 1.21 µM
Tumor Conc. [15]: 6 nmol/g of tissue
Tumor/Plasma Ratio [15]: 3.10
Plasma Conc. [16]: 0.00162 µM
Tumor Conc. [16]: 24 nmol/g of tissue
Tumor/Plasma Ratio [16]: 407
Plasma Conc. [17]: BQL
Tumor Conc. [17]: 48 nmol/g of tissue
Tumor Conc. (Tissue Distribution Data for SDC-TRAP-0178, Time (h) 0.083): 16.4 nmol/g of tissue
Tumor Conc. (Tissue Distribution Data for SDC-TRAP-0178, Time (h) 1): 12.8 nmol/g of tissue
Tumor Conc. (Tissue Distribution Data for SDC-TRAP-0178, Time (h) 6): 7.17 nmol/g of tissue
Tumor Conc. (Tissue Distribution Data for SDC-TRAP-0178, Time (h) 24): 2.81 nmol/g of tissue
Tumor Conc. (Tissue Distribution Data for SDC-TRAP-0178, Time (h) 48): 1.01 nmol/g of tissue
IC50 [5]: 20 nM

CCc1c2c(nc3ccc(OC(=O)N4CCN(Cc5ccc(-n6c(O)nnc6-c6cc(C(C)C)c(O)cc6O)cc5)CC4)cc13)-c1cc3c(c(=O)n1C2)COC(=O)C3(O)CC (centres unmarked) [SDC-TRAP-0046, 4,11-diethyl-4-hydroxy-3,14-dioxo-3,4,12,14-tetrahydro-1H-pyrano[3′,4′:6,7]indolizino[1,2-b]quinolin-9-yl 4-(4-(3-(2,4-dihydroxy-5-isopropylphenyl)-5-hydroxy-4H-1,2,4-triazol-4-yl)benzyl)piperazine-1-carboxylate]
IC50 [1]: 205 nM
% Remaining (1 h) [2]: 51.6%
% Remaining (1 h, 37° C.) ([2]; mouse plasma): 52%
Mouse (10 μM) % Remaining 1 h (37° C.)§ ([2]; mouse plasma, data from single parent peak): 50%
Mouse (10 μM) % Remaining 1 h (37° C.)* ([2]; mouse plasma, sum of both peaks): 52%
antitumor activity in HCT-116 xenografts (FIG. 23) [6]: better activity in inhibiting the growth of HCT-116 cells in vivo than either positive control group
IC50 [3]: 489 nM
IC50 (HER2 [7]): 246 nM
IC50 (HER2 [4]): 246 nM
Media (5 μM) % Remaining 19 h (37° C.) [8]: 37%
Media (5 μM) % Remaining 1 h (37° C.)§ ([8]; data from single parent peak): 62%
Media (5 μM) % Remaining 1 h (37° C.)* ([8]; sum of both peaks): 65%
Mass Retention [9]: 88.1%
Plasma Conc. [18]: 360 µM
Tumor Conc. [18]: 6.94 nmol/g of tissue
Tumor/Plasma Ratio [18]: 0.0193
Plasma Conc. [19]: 5.88 µM
Tumor Conc. [19]: 4.97 nmol/g of tissue
Tumor/Plasma Ratio [19]: 0.844
Plasma Conc. [20]: 2.37 µM
Tumor Conc. [20]: 5.21 nmol/g of tissue
Tumor/Plasma Ratio [20]: 2.20
Plasma Conc. [21]: 0.0542 µM
Tumor Conc. [21]: 2.19 nmol/g of tissue
Tumor/Plasma Ratio [21]: 40.3
Plasma Conc. [22]: BQL
Tumor Conc. [22]: 0.188 nmol/g of tissue
Plasma Conc. [23]: 5.88 µM
Tumor Conc. [23]: 4.97 nmol/g of tissue
Plasma Conc. [24]: 2.37 µM
Tumor Conc. [24]: 5.21 nmol/g of tissue
Plasma Conc. [25]: 0.0542 µM
Tumor Conc. [25]: 2.19 nmol/g of tissue
Plasma Conc. [26]: BQL
Tumor Conc. [26]: 0.188 nmol/g of tissue
Tumor/Plasma Ratio (after SDC-TRAP-0046 IV, 6 h): 0.844
Tumor/Plasma Ratio (after SDC-TRAP-0046 IV, 12 h): 2.20
Tumor/Plasma Ratio (after SDC-TRAP-0046 IV, 24 h): 40.3
Tumor/Plasma Ratio (after SDC-TRAP-0046 IV, […]): 0.0193
IC50 [5]: 20 nM

CCc1c2c(nc3ccc(OCC(=O)N(C)CCOCCn4ccc5cc(-n6c(O)nnc6-c6cc(C(C)C)c(O)cc6O)ccc54)cc13)-c1cc3c(c(=O)n1C2)COC(=O)C3(O)CC (centres unmarked) [SDC-TRAP-0028, 2-((4,11-diethyl-4-hydroxy-3,14-dioxo-3,4,12,14-tetrahydro-1H-pyrano[3′,4′: 6,7]indolizino[1,2-b]quinolin-9-yl)oxy)-N-(2-(2-(5-(3-(2,4-dihydroxy-5-isopropylphenyl)-5-hydroxy-4H-1,2,4-triazol-4-yl)-1H-indol-1-yl)ethoxy)ethyl)-N-methylacetamide]
% Remaining (1 h) [10]: 40.9%
% Remaining (1 h, 37° C.) [10]: 41%
% Remaining 2 h (37° C.), HU ([11]; human, plasma, 2 h, 1 μM): 51%
% Remaining 2 h (37° C.), HU ([11]; human, plasma, 2 h, 10 μM): 65%
% Remaining 2 h (37° C.), MO ([12]; mouse, plasma, 2 h, 1 μM): 53%
% Remaining 2 h (37° C.), MO ([12]; mouse, plasma, 2 h, 10 μM): 47%
IC50 (Human H3122 NSCLC cells): 909 nM

CCc1c2c(nc3ccc(OC(=O)N(C)CCn4ccc5cc(-n6c(O)nnc6-c6cc(C(C)C)c(O)cc6O)ccc54)cc13)-c1cc3c(c(=O)n1C2)COC(=O)C3(O)CC (centres unmarked) [SDC-TRAP-0022, 4,11-diethyl-4-hydroxy-3,14-dioxo-3,4,12,14-tetrahydro-1H-pyrano[3′,4′:6,7]indolizino[1,2-b]quinolin-9-yl (2-(5-(3-(2,4-dihydroxy-5-isopropylphenyl)-5-hydroxy-4H-1,2,4-triazol-4-yl)-1H-indol-1-yl)ethyl)(methyl)carbamate]
IC50 (H 3211 NSLC cells; 1 h, read-out: IC50, 1h-pulse/71h-compound free, 7.5 × 10^3 cells/well, two replicate columns): > 3000 nM
IC50 (H 3211 NSLC cells; read-out: IC50, 1h-pulse/71h-compound free, 7.5 × 10^3 cells/well, two replicate columns): > 3000 nM
IC50 (H 3211 NSLC cells; read-out: IC50, 72h-continuous, 7.5 × 10^3 cells/well, three replicate columns): 193 nM and 823 nM and 460 nM
% Remaining (1 h) [2]: 21.0%
% Remaining (1 h, 37° C.) ([2]; mouse plasma): 21%
% Remaining 2 h (37° C.), HU ([11]; human plasma, 1 μM): 29%
% Remaining 2 h (37° C.), HU ([11]; human plasma, 10 μM): 30%
% Remaining 2 h (37° C.), MO ([12]; mouse plasma, 1 μM): 32%
% Remaining 2 h (37° C.), MO ([12]; mouse plasma, 10 μM): 31%
IC50 (Human H3122 NSCLC cells): 492 nM
IC50 (HER2 [7]): > 5000 nM
IC50 (HER2 [4]): > 5000 nM
